In patent US20250215039A1, “NUCLEOSIDES FOR TREATING CANCER” (PRIMEFOUR THERAPEUTICS, INC., priority 2022, published 2025):
pIC50: −log10 of the molar value. Like-named read-outs stand apart in the source and are kept apart here.

System: cancer cell lines
Assay: Cancer cell proliferation activity (CellTiterGlo, 72 h)
Type: cell-based
Conditions: 72 h, 72 h, read-out: IC50 cell proliferation
In short: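 Cells seeded overnight at 37 °C, then dosed with compound at 0.1% final DMSO and incubated 72 h at 37 °C (5% or 10% CO2 by medium).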

pIC50 (5637 (bladder)): 6.80
pIC50 (CLS439 (bladder)): 6.11
pIC50 (HS729 (muscle)): 6.92
pIC50 (J82 (bladder)): 7.10
pIC50 (JAR (placenta)): 7.52
pIC50 (MT3 (breast)): 7.40
pIC50 (PANCI (pancreas)): 4.83
pIC50 (PC3 (prostate)): 7.15
pIC50 (RD (muscle)): 7.15
pIC50 (T24 (bladder)): 7.05
pIC50 (Homo sapiens, 22Rv1, 72 h, 22RV1 (prostate)): 6.60
pIC50 (Homo sapiens, 786-0, 72 h, 786O (kidney)): 7.15
pIC50 (Homo sapiens, A204, 72 h, A204 (muscle)): 7.52
pIC50 (Homo sapiens, A549, 72 h, A549 (lung)): 6.43
pIC50 (Homo sapiens, A673, 72 h, A673 (bone)): 6.44
pIC50 (Homo sapiens, A2780, 72 h, A2780 (ovary)): 6.82
pIC50 (Homo sapiens, A-375, 72 h, A375 (skin)): 7.40
pIC50 (Homo sapiens, A-431, 72 h, A431 (skin)): 7.30
pIC50 (Homo sapiens, ACHN, ACHN (kidney)): 6.34
pIC50 (Homo sapiens, ASPC1, 72 h, ASPC1 (pancreas)): 7.52
pIC50 (Homo sapiens, BT-20, 72 h, BT20 (breast)): 7.15
pIC50 (Homo sapiens, BXPC-3, 72 h, BXPC3 (pancreas)): 6.28
pIC50 (Homo sapiens, C-33-A, C33A (endometrial)): 7.22
pIC50 (Homo sapiens, CAKI-1, 72 h, CAKI1 (kidney)): 8.00
pIC50 (Homo sapiens, COLO 205, 72 h, COLO205 (colon)): 6.77
pIC50 (Homo sapiens, COLO-678, 72 h, COLO678 (colon)): 6.19
pIC50 (Homo sapiens, Ca-Ski, CASKI (endometrial)): 7.40
pIC50 (Homo sapiens, Caco-2, 72 h, CACO2 (colon)): 6.80
pIC50 (Homo sapiens, Calu-6, 72 h, CALU6 (lung)): 7.52
pIC50 (Homo sapiens, DLD-1, 72 h, DLD1 (colon)): 6.46
pIC50 (Homo sapiens, DU-145, 72 h, DU145 (prostate)): 7.70
pIC50 (Homo sapiens, EFO-21, 72 h, EFO21 (ovary)): 7.10
pIC50 (Homo sapiens, EJ-28, 72 h, EJ28 (bladder)): 7.22
pIC50 (Homo sapiens, Granta-519, 72 h, GRANTA-519 (hematological)): 5.55
pIC50 (Homo sapiens, HCT-15, 72 h, HCT15 (colon)): 6.85
pIC50 (Homo sapiens, HCT-116, 72 h, HCT116 (colon)): 6.80
pIC50 (Homo sapiens, HEK293, 72 h, HEK293 (kidney)): 7.15
pIC50 (Homo sapiens, HL-60, 72 h, HL-60 (hematological)): 7.40
pIC50 (Homo sapiens, HT-29, 72 h, HT29 (colon)): 7.30
pIC50 (Homo sapiens, HT-1080, 72 h, HT1080 (connective tissue)): 5.68
pIC50 (Homo sapiens, HeLa, HELA (endometrial)): 7.15
pIC50 (Homo sapiens, HepG2, 72 h, HEPG2 (liver)): 7.22
pIC50 (Homo sapiens, Hs-578T, HS578T (breast)): 7.15
pIC50 (Homo sapiens, IGROV-1, 72 h, IGROV1 (ovary)): 7.52
pIC50 (Homo sapiens, IMR-90, 72 h, IMR90 (lung)): 7.30
pIC50 (Homo sapiens, JEG-3, 72 h, JEG3 (placenta)): 7.40
pIC50 (Homo sapiens, JIMT-1, 72 h, JIMT1 (breast)): 7.70
pIC50 (Homo sapiens, K562, 72 h, K-562 (hematological)): 5.93
pIC50 (Homo sapiens, Kasumi 1, 72 h, KASUMI-1 (hematological)): 7.70
pIC50 (Homo sapiens, L-363, 72 h, L-363 (hematological)): 7.70
pIC50 (Homo sapiens, LoVo, LOVO (colon)): 7.70
pIC50 (Homo sapiens, MCF7, 72 h, MCF7 (breast)): 5.59
pIC50 (Homo sapiens, MDA-MB-231, 72 h, MDAMB231 (breast)): 5.97
pIC50 (Homo sapiens, MDA-MB-435, 72 h, MDAMB435 (skin)): 6.72
pIC50 (Homo sapiens, MDA-MB-436, 72 h, MDAMB436 (breast)): 7.30
pIC50 (Homo sapiens, MDA-MB-468, 72 h, MDAMB468 (breast)): 7.05
pIC50 (Homo sapiens, MG-63, 72 h, MG63 (bone)): 5.44
pIC50 (Homo sapiens, MHH-ES-1, 72 h, MHHES1 (bone)): 7.00
pIC50 (Homo sapiens, MIA PaCa-2, 72 h, MIAPACA2 (pancreas)): 5.14
pIC50 (Homo sapiens, MINO, MINO (hematological)): 7.70
pIC50 (Homo sapiens, MV4-11, 72 h, MV4-11 (hematological)): 7.70
pIC50 (Homo sapiens, NCI-H23, 72 h, NCI-H23 (lung)): 7.22
pIC50 (Homo sapiens, NCI-H82, 72 h, NCIH82 (lung)): 7.15
pIC50 (Homo sapiens, NCI-H292, 72 h, NCIH292 (lung)): 6.08
pIC50 (Homo sapiens, NCI-H460, 72 h, NCIH460 (lung)): 7.40
pIC50 (Homo sapiens, OVCAR-3, 72 h, OVCAR3 (ovary)): 7.52
pIC50 (Homo sapiens, OVCAR-4, 72 h, OVCAR4 (ovary)): 7.10
pIC50 (Homo sapiens, PLC-PRF-5, 72 h, PLCPRF5 (liver)): 6.35
pIC50 (Homo sapiens, Panc1005, 72 h, PANC1005 (pancreas)): 7.22
pIC50 (Homo sapiens, Ramos, RAMOS (hematological)): 6.89
pIC50 (Homo sapiens, SAOS-2, 72 h, SAOS2 (bone)): 7.30
pIC50 (Homo sapiens, SF-268, 72 h, SF268 (brain)): 5.73
pIC50 (Homo sapiens, SF-295, 72 h, SF295 (brain)): 6.64
pIC50 (Homo sapiens, SK-BR-3, 72 h, SKBR3 (breast)): 8.00
pIC50 (Homo sapiens, SK-HEP1, 72 h, SKHEP1 (liver)): 6.35
pIC50 (Homo sapiens, SK-LMS-1, 72 h, SKLMS1 (uterus)): 7.40
pIC50 (Homo sapiens, SK-MEL-5, 72 h, SKMEL5 (skin; SKMELS [sic] in Table 9E)): 6.24
pIC50 (Homo sapiens, SK-MEL-28, 72 h, SKMEL28 (skin)): 7.00
pIC50 (Homo sapiens, SK-N-AS, SKNAS (brain)): 7.15
pIC50 (Homo sapiens, SK-N-SH, SKNSH (brain)): 7.52
pIC50 (Homo sapiens, SK-OV-3, 72 h, SKOV3 (ovary)): 7.22
pIC50 (Homo sapiens, SNB-75, 72 h, SNB75 (brain)): 6.80
pIC50 (Homo sapiens, SU-DHL10, 72 h, SU-DHL-10 (hematological)): 6.36
pIC50 (Homo sapiens, SU-DHL-6, 72 h, SU-DHL-6 (hematological)): 7.52
pIC50 (Homo sapiens, SW-620, 72 h, SW620 (colon)): 7.30
pIC50 (Homo sapiens, TE-671, 72 h, TE671 (muscle)): 6.43
pIC50 (Homo sapiens, THP-1, 72 h, THP-1 (hematological)): 5.75
pIC50 (Homo sapiens, U2OS, U20S (bone; U2OS in Table 9E)): 7.22
pIC50 (Homo sapiens, U-87 MG, U87MG (brain)): 5.70
pIC50 (Homo sapiens, UMUC3, 72 h, UMUC3 (bladder)): 6.01
pIC50 (Homo sapiens, UO-31, 72 h, UO31 (kidney)): 7.40
pIC50 (Homo sapiens, WSU-NHL, WSU-NHL (hematological)): 7.52
pIC50 (NCI-H358M, NCIH358M (lung)): 7.15
pIC50 (PBMC, PBMC (hematological)): 6.49
pIC50 (RD-ES, RDES (bone)): 7.52
Structure (SMILES): C[C@]1(CO)O[C@@H](n2cnc3c(N)nc(F)nc32)[C@H](O)[C@@H]1O [Cpd. No. 178, (2R,3S,4R,5R)-5-(6-amino-2-fluoro-9H-purin-9-yl)-2-(hydroxymethyl)-2-methyltetrahydrofuran-3,4-diol]
